Like-named read-outs stand apart in the source and are kept apart here.
Tests used:
A549 lung cancer cells = format: in vivo; conditions: Day 26, 10 mg/kg IP in sterile saline, qd×5×3 wk (vehicle 43)
Experimental: (§1) MP470 and MP470 HCl were tested against different tumor types in athymic nude mice as summarized below (Table 8). Various formulations and routes were evaluated. HT-29 colorectal cancer cells and SB-CL2 melanoma cells were implanted subcutaneously, while A549 lung cancer cells, MiaPaCa-2 pancreatic cancer cells, TT medullary thyroid cancer cells, and OVCAR-3 ovarian cancer cells were implanted […] in the hind flank of mice. All animals were allowed to develop medium-sized (80-125 mg) tumors, before initiation of dosing. Tumor volume and mouse bodyweight were followed over the course of the study.
A549 Lung Cancer Model—In 40 nude mice implanted intradermally with A549 lung cancer cells, animals were dosed with vehicle orally, MP470 in 100% corn oil orally, or 5-FU in sterile saline IP. […] […] While MP470 reduced tumor growth rates, treatment of these cells with 5-FU reduced the overall tumor growth rate per day further to 19.5 mm3/d on Day 26.
To determine whether MP470.HCl in combination with carboplatin increased the anti-tumor activity in xenograft tumors growing in vivo, the agents were administered alone and in combination and tumor growth was monitored. MP470.HCl (50 mg/kg) was combined with carboplatin (30 mg/kg) alone or carboplatin with taxol (20 mg/kg).

A549 NSCLC cells = assay: Sensitization of NSCLC cells to carboplatin; format: cell-based; conditions: A549, single agent
Experimental: (§2) The non-small cell lung cancer cell lines A549 and NCI-H647 were used for these experiments. […] The IC50 concentrations observed for carboplatin against both of these cell lines was consistent with this.
(§3) Two sub-IC50 doses of MP470.HCl were tested in combination with carboplatin to evaluate possible synergism between these agents and consequently a lower IC50 value for carboplatin in each of the cell lines.
(§4) MP470.HCl was able to dramatically decrease the IC50 of carboplatin in these cells.

NCI-H647 NSCLC cells = assay: Sensitization of NSCLC cells to carboplatin; format: cell-based; conditions: NCI-H647, single agent
Experimental: as §2, §3, §4

[1] = tested on: Rad51 in A549 non-small cell lung cancer cells; assay: Rad51 protein level by Western blot in cells; format: cell-based; conditions: 6.1 μM carboplatin, 24 hrs
Experimental: Rad51 protein levels were also determined in A549 non-small cell lung cancer cells using combinations with DNA damaging agents. Cells were treated for 24 hrs with 6.1 μM (IC30 of carboplatin alone) carboplatin in combination with 0.71 μM or 3.82 μM MP470.HCl. Protein lysates were isolated from treated and non-treated cells, separated by SDS-PAGE, and transferred to nitrocellulose. […] The increase in Rad51 due to carboplatin treatment was reduced by 26% when treated in combination with 0.71 μM MP470.HCl and by 42% with 3.82 μM MP470.HCl

DMS-114 SCLC cells = assay: Sensitization of SCLC cells to etoposide; format: cell-based; conditions: Homo sapiens; DMS-114, single agent
Experimental: (§5) Therefore, to determine if MP470 would increase sensitivity to etoposide treatment, SCLC cells were treated with the agents individually and in combination. […] Two sub-IC50 doses of MP470.HCl were tested in combination with etoposide to evaluate possible synergism and a resulting lower IC50 value for etoposide in each of the cell lines.

DMS-153 SCLC cells = assay: Sensitization of SCLC cells to etoposide; format: cell-based; conditions: Homo sapiens; DMS-153, single agent
Experimental: as §5

[2] = Solubility of MP470 and its salts (Table 2); format: physicochemical; conditions: water
[3] = tested on: OVCAR-3 ovarian cancer cells; assay: OVCAR-3 ovarian cancer tumor model in nude mice; format: in vivo
Experimental: as §1
OVCAR-3 Ovarian Cancer Model—Forty-two nude mice were implanted subcutaneously with OVCAR-3 ovarian carcinoma, the hydrochloride salt of MP470 (MP470.HCl) was formulated in 100% corn oil and delivered orally. MP470.HCl, cisplatin, and irinotecan were administered to animals alone or in combination. When administered alone, MP470.HCl was given qd at 100 or 200 mg/kg, irinotecan was given q3d at 20 mg/kg, and cisplatin was given q7d at 5 mg/kg. In combination studies, 100 mg/kg MP470.HCl was given qd and combined with 20 mg/kg irinotecan given q3d or 5 mg/kg cisplatin given q7d. One animal in the 200 mg/kg MP470.HCl group died on Day 1, while five animals in the MP470.HCl/cisplatin combination group died (one on Day 5, Day 6, Day 7, Day, 20, and Day 27). Treatment with each individual agent (200 mg/kg MP470.HCl, 46.2 mm3/d; 20 mg/kg irinotecan, 38.53 mm3/d; 5 mg/kg cisplatin, 33.8 mm3/d) reduced the tumor growth rate below that of vehicle-treated mice (78.04 mm3/d). […] In contrast, when MP470.HCl and cisplatin were used in combination, the tumor growth rate was reduced to 10.22 mm3/d. However, the 100 mg/kg dose of MP470.HCl in combination with cisplatin caused enhanced toxicity and most animals in this group died during the 21-day treatment period. The enhanced toxicity was related to the level of the dose used, so a subsequent study was conducted using half the dose, 50 mg/kg/day as described below.

[4] = rat, in vivo, po
Experimental: Twenty-four rats were placed into four groups each consisting of three animals per sex. The animals were weighed the day before dosing, as well as just prior to dosing.
After intravenous infusion of MP470.HCl at 5 mg/kg, average MP470 peak plasma concentrations of 454.3 ng/mL for males and 370.7 ng/mL for females were attained at 0.083 hours (5 minutes), the first sampling point postdose. After oral administration of non-micronized MP470.HCl, peak plasma concentrations of MP470 were attained at 0.5-12 hours for Group 2 (25 mg/kg) and 4-12 hours for Group 3 (100 mg/kg, suspension). The extent of systemic exposure of rats to MP470, characterized by AUCO-∞, was approximately 3.8-fold and 2.9-fold higher in females than in males for Groups 2 and 3, respectively. Average AUCO-∞ values were higher at 100 mg/kg than at 25 mg/kg and the increases in AUCO-∞ were greater than dose-proportional.
After oral administration of micronized MP470.HCl (Group 4), peak plasma concentrations of MP470 were attained at 4-12 hours. The extent of systemic exposure of rats to MP470, characterized by AUCO-∞, was approximately 3.4-fold higher in females than in males for Group 4. The extent of exposure of rats to MP470, characterized by AUCO-∞, was 1.7-fold (males) and 1.4-fold (females) higher for non-micronized MP470 HCl (Group 3) than for micronized MP470 HCl (Group 4).

[5] = tested on: γ-H2AX levels in OVCAR-3 (ovarian carcinoma) cells; assay: DNA damage by γ-H2AX levels; format: cell-based; conditions: single agent 10 μM; control 0.5% DMSO medium
Experimental: OVCAR-3 (ovarian carcinoma) cells were treated with MP470 (10 μM), MP470.HCl (10 μM), and/or topotecan (10 μM).

O=c1[nH]cc(F)c(=O)[nH]1 [5-FU, 5-fluorouracil, reference compound]
tumor growth rate (A549 lung cancer cells): 19.5 mm3/d

N.N.O=C([O-])C1(C(=O)[O-])CCC1.[Pt+2] [Carboplatin, reference compound]
IC50 (A549 NSCLC cells): 20.1 µM | IC50 (NCI-H647 NSCLC cells): 173 µM | increase of Rad51 levels over non-treatment levels [1]: 12 fold

COc1cc([C@@H]2c3cc4c(cc3[C@@H](O[C@@H]3O[C@@H]5CO[C@@H](C)O[C@H]5[C@H](O)[C@H]3O)[C@H]3COC(=O)[C@H]23)OCO4)cc(OC)c1O [Etoposide, reference compound]
IC50 (DMS-114 SCLC cells): 0.92 µM | IC50 (DMS-153 SCLC cells): 0.29 µM

S=C(NCc1ccc2c(c1)OCO2)N1CCN(c2ncnc3c2oc2ccccc23)CC1 [MP470 Esylate]
Solubility in water [2]: 5.89 µg/mL

N.N.[Cl][Pt][Cl] [cisplatin, reference compound]
tumor growth rate ([3]; 5 mg/kg q7d (vehicle 78.04)): 33.8 mm3/d

CCc1c2c(nc3ccc(OC(=O)N4CCC(N5CCCCC5)CC4)cc13)-c1cc3c(c(=O)n1C2)COC(=O)[C@]3(O)CC [irinotecan, reference compound]
tumor growth rate ([3]; 20 mg/kg q3d (vehicle 78.04)): 38.53 mm3/d

Cl.S=C(NCc1ccc2c(c1)OCO2)N1CCN(c2ncnc3c2oc2ccccc23)CC1 [micronized MP470.HCl]
AUC0-∞ in females relative to males ([4]; 100 mg/kg): approximately 3.4 fold | time of peak plasma concentration ([4]; 100 mg/kg): 4 to 12 h

Cl.S=C(NCc1ccc2c(c1)OCO2)N1CCN(c2ncnc3c2oc2ccccc23)CC1 [non-micronized MP470.HCl]
AUC0-∞ in females relative to males ([4]; 25 mg/kg): approximately 3.8 fold | time of peak plasma concentration ([4]; 25 mg/kg): 0.5 to 12 h | AUC0-∞ in females relative to males ([4]; 100 mg/kg): ~2.9 fold | time of peak plasma concentration ([4]; 100 mg/kg): 4 to 12 h

CC[C@@]1(O)C(=O)OCc2c1cc1n(c2=O)Cc2cc3c(CN(C)C)c(O)ccc3nc2-1 [topotecan, reference compound]
Increase in DNA damage (γ-H2AX) over control [5]: 65%
